From patent US20120101284A1, “METHOD FOR SCREENING INHIBITOR FOR INHIBITING INTERACTION BETWEEN BETA-AMYLOID PEPTIDE AND VEGF AND INHIBITOR SEARCHED BY THE SAME” (INNOPHARMASCREEN INC., priority 2009, published 2012)

Assays:
[1] = target: T1, binding between the beta-amyloid 1-42 peptide and VEGF165 (Homo sapiens, UniProt P15692); assay: Protein chip screening of inhibitors of the binding between beta-amyloid and VEGF165; conditions: first screening, VEGF165 50 μg/ml, single concentration
T1 construct: purchased R&D System, Inc. (VEGF165); Bachem AG (beta-amyloid)
T1 sequence (P15692 27-191 isoform P15692-4): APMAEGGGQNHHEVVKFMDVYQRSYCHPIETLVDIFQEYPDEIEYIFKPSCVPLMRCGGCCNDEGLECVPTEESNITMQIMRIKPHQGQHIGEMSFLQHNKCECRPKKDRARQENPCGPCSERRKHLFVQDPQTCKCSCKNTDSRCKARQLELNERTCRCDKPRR
Protocol: ProteoChip™ (Proteogen Inc., Seoul, Korea) was used as a substrate to fix a protein. A sheet paper was adhered on the substrate to prepare Well-Chip. A beta-amyloid (Bachem AG, Bubendorf, Switzerland) was diluted with a phosphate-buffered saline (PBS) containing 30% glycerol solution to be 50 μg/ml; then added to each well; reacted at 30° C. in a humidity incubator, overnight; the beta-amyloid remained after combining was washed with a phosphate-buffered saline containing 0.05% tween-20 (0.05% PBST); dried with a nitrogen gas; and then a high-speed-high throughput screening was performed.
A mixed solution was prepared by mixing VEGF165 (50 μg/ml) and 130 compounds (50 μM) derived from a natural material obtained in Example 1 in order to experiment the inhibition of the binding between the beta-amyloid and VEGF165. […]
The beta-amyloid-tagged protein chip prepared in Example 2 was blocked with 3% BSA for 2 hours; then washed with 0.05% PBST twice; and then dried with a nitrogen gas. […] It was washed with the washing solution; then dried using a nitrogen gas; a primary antibody was added to each of wells; then reacted at 30° C. in a humidity incubator for 30 minutes; washed with the washing solution; and then dried with the nitrogen gas to measure an inhibition ability of library by analyzing the binding degree with the relative fluorescence intensity using a fluorescence laser scanner. […]

SH-SY5Y cell [2] = assay: Inhibition of cytotoxicity of beta-amyloid by screened material (MTT assay); assay type: cell-based; conditions: standard of 10 μM beta-amyloid, at more than 5 μM, 24 hours
Protocol: The SH-SY5Y cells were added to 96-well tissue culture plate to be the cell concentration of 1×10^4 per well.

SH-SY5Y cell [3] = test system: SH-SY5Y cell
Source text: PC12 Cell (Korean Cell Line Bank, Seoul, Korea) was maintained in the mixed solution of RPMI1640 (Welgene, Daegu, Korea) containing 1× Antibiotic-Antimycotic (GIBCO, N.Y., USA) and 10% FBS (Fetal Bovine Serum) (Welgene, Daegu, Korea). SH-SY5Y cell (Korean Cell Line Bank, Seoul, Korea) was maintained in the mixed solution of DMED/F12 (Welgene, Daegu, Korea) containing 1× Antibiotic-Antimycotic (GIBCO, N.Y., USA) and 10% FBS (Fetal Bovine Serum) (Welgene, Daegu, Korea). The PC12 and SH-SY5Y culture cells were maintained under the conditions of 100% humidity and 37° C. in the environment for supplying gas components with further 5% carbon dioxide.
It was performed according to a MTT [(3-(4,5-dimethylthiazol-2yl-2,5-diphenyl-2H-tetrazoilum bromide] experiment protocol. MTT was dissolved in PBS to be 5 mg/ml and then stored at 4° C. to use. After completing the reaction, 10 μl of 5 mg/ml MTT solution was added to 100 culture mixed solution of each well and then reacted for 3 hours. The supernatant of each well was discarded, and then a chromophoric reactant (Formazancrystal) was dissolved in 100 μl of DMSO; and then an absorbance was measured using ELISA reader (595 nm).
The PC12 cells were added to each of wells of Poly-D-lysine-coated 96-well tissue culture plate (Corning, Mass., USA) to be the cell concentration of 2×10^4 per well. […]

heparin
inhibition of the interaction between beta-amyloid 1-42 peptide and VEGF165 (relative fluorescence intensity) [1]: inhibited

NCCCS(=O)(=O)O [Alzhemed™]
survival rate of cell increased (SH-SY5Y cell [2]): about 30%

beta-amyloid 1-42: forward-synthesized beta-amyloid 1-42 peptide
survival rate of cell (SH-SY5Y cell [3]): decreased in proportion as the concentration increase
